From paper PMC5653858, “A single extracellular amino acid in Free Fatty Acid Receptor 2 defines antagonist species selectivity and G protein selection bias” (Scientific Reports, 2017)
Residue numbers refer to the chain shown, from its start.

How the values were obtained:
[1] = target: T1, Lys^65Glu hFFA2 (Homo sapiens, UniProt O15552, K65E); assay: HTRF cAMP inhibition assay, Lys65Glu hFFA2; type: cell-based; settings: compared to wild type hFFA2
T1 construct: NanoLuc Luciferase (N); eYFP; expressed in transfected cells; host or cells: Flp-In T-REx HEK293, doxycycline-induced
T1 sequence (O15552 1-330 K65E): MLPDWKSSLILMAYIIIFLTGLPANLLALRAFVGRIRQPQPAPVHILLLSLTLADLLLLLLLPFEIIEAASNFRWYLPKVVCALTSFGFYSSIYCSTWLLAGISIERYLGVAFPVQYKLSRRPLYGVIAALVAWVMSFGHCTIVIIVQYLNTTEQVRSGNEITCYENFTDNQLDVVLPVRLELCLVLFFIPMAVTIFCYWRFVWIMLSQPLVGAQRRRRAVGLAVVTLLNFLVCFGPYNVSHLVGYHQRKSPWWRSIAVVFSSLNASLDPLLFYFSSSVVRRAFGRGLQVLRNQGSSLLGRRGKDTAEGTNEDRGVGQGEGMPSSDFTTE
Protocol: (§1) All cAMP and inositol monophosphate experiments were performed using Flp-In T-REx HEK293 cells induced to express the receptor of interest. Experiments were carried out using respective homogenous time-resolved FRET-based detection kits (CisBio Bioassays; CisBio, Codolet, France) according to the manufacturer’s protocol. For the cAMP inhibition assay cells were plated at 2000 cells/well in low-volume 384-well plates. The ability of agonists to inhibit 1 μM forskolin-induced cAMP production was assessed following a co-incubation for 30 min with agonist compounds. For the inositol monophosphate accumulation assay cells were plated at 7500 cells/well in low-volume 384-well plates and incubated for 2 h at 37 °C with test compounds. To assess ability of antagonists to inhibit agonist responses, cells were pre-incubated with antagonist compounds for 30 min at 37 °C prior to addition of an EC80 concentration of agonist. Respective reactions were stopped according to the manufacturer’s instructions and the output was measured by with a PHERAstar FS plate reader (BMGLabtech, Aylesbury, UK).

[2] = target: T2, Lys^65Arg hFFA2 (Homo sapiens, UniProt O15552, K65R); assay: bias factor β calculation, Lys65Arg hFFA2 compared to WT; type: cell-based; settings: Pathway 2 TGFα shedding
T2 construct: NanoLuc Luciferase (N); eYFP; expressed in transfected cells; host or cells: Flp-In T-REx HEK293, doxycycline-induced
T2 sequence (O15552 1-330 K65R): T1 sequence (O15552 1-330 K65E) with E65R
Protocol: (§2) All data are presented as means ± SEM of at least three independent experiments. Data analysis and curve fitting was carried out using the GraphPad Prism software package version 5.0b (GraphPad, San Diego). […] In case of inhibition experiments with antagonists an equivalent analysis was followed to fit an inverse sigmoidal curve. To perform the statistical analysis of curve parameters, data from multiple experiments were fitted independently and resulting curve fit values were analysed with indicated tests. For radioligand binding data, saturation binding curves were generated by fitting the specific binding, which was obtained by subtracting non-specific from total binding, to a one site specific binding model that allows calculation of Kd values for the radioligand at wild type and mutant receptors. To determine affinity of unlabelled ligands, data obtained in displacement assays were fit to an inverse three parameter sigmoidal curve constrained by radioligand affinity and concentration to allow for Ki calculation. To quantify the signaling bias that mutations of hFFA2 show compared to the wild type receptor, bias factor β was calculated by determining the logarithm of the ratio of relative intrinsic activities for a ligand at two different assays[43].

[3] = target: T1, Lys^65Glu hFFA2; assay: inositol monophosphate accumulation assay, Lys65Glu hFFA2; type: cell-based; settings: Glu substitution
Protocol: as §1

[4] = target: T3, Lys^65Ala hFFA2 (Homo sapiens, UniProt O15552, K65A); assay: HTRF cAMP inhibition assay, Lys65Ala hFFA2; type: cell-based; set-up: NanoLuc Luciferase (N); eYFP; expressed in transfected cells; host or cells: Flp-In T-REx HEK293, doxycycline-induced; settings: compared to wild type hFFA2
T3 sequence (O15552 1-330 K65A): T1 sequence (O15552 1-330 K65E) with E65A
Protocol: as §1

[5] = target: T4, hFFA2 (Homo sapiens, UniProt O15552); assay: TGFα shedding assay, wild type hFFA2; type: cell-based; set-up: HA-tag (C); expressed in transfected cells; host or cells: HEK293, parental and CRISPR/Cas9 G protein-deleted lines, transient transfection
T4 sequence (O15552 1-330): T1 sequence (O15552 1-330 K65E) with E65K
Protocol: A mixture of 250 ng AP-TGFα, 100 ng receptor of interest and 50 ng Gα protein were transfected using polyethyleneimine into one well of HEK293 cells cultured in a 12-well plate. Transfected cells were detached with PBS containing 0.05% trypsin and 0.52 mM EDTA and harvested by centrifugation at 190 × g for 5 min. The cell pellet was resuspended in PBS, followed by an incubation for 15 min at room temperature. After a second centrifugation at 190 × g for 5 min, pelleted cells were resuspended in 4 ml Hank’s Balanced Salt Solution (HBSS) containing 5 mM HEPES (pH7.4) per well in a 12-well plate. The cell suspensions were plated at 90 μl per well in a 96-well plate and incubated at 37 °C with 5% CO2 for 30 minutes. After the equilibration period 10 μl per well of 10× concentration of compounds were added and incubated for 1 h at 37 °C with 5% CO2. Plates were centrifuged at 190 × g for 2 min and 80 μL of supernatant was transferred into another 96-well plate. Solution containing p-NPP (10 mM p-NPP, 40 mM Tris-HCl (pH 9.5), 40 mM NaCl, 10 mM MgCl2) was added at 80 μl per well into supernatant-only plates as well as cell plates. […] Detailed assay development and analysis has been described previously.

[6] = target: T3, Lys^65Ala hFFA2; assay: inositol monophosphate accumulation assay, Lys65Ala hFFA2; type: cell-based; set-up: NanoLuc Luciferase (N); eYFP; expressed in transfected cells; host or cells: Flp-In T-REx HEK293, doxycycline-induced; settings: Ala substitution
Protocol: as §1

[7] = target: T3, Lys^65Ala hFFA2; assay: bias factor β calculation, Lys65Ala hFFA2 compared to WT; type: cell-based; set-up: NanoLuc Luciferase (N); eYFP; expressed in transfected cells; host or cells: Flp-In T-REx HEK293, doxycycline-induced; settings: Pathway 2 TGFα shedding
Protocol: as §2

[8] = target: T1, Lys^65Glu hFFA2; assay: bias factor β calculation, Lys65Glu hFFA2 compared to WT; type: cell-based; settings: Pathway 2 TGFα shedding
Protocol: as §2

[9] = tested on: Lys^65 to either Ala or Glu in hFFA2; assay: degree of bias to favor Gi-mediated signalling, Lys65 to either Ala or Glu in hFFA2; type: cell-based, human; settings: vs TGFα shedding
Protocol: as §2

[10] = target: T3, Lys^65Ala hFFA2; settings: compared with loss of potency in inositol monophosphate assays
Protocol: Membranes were generated from Flp-In T-REx HEK293 cells treated with 100 ng/mL doxycycline to induce expression of receptor of interest. Cells were washed with ice-cold phosphate-buffered saline, removed from dishes by scraping and centrifuged at 3000 rpm for 5 min at 4 °C. Pellets were resuspended in TE buffer (75 mM Tris-HCl, 5 mM EDTA; pH 7.5) containing a protease inhibitor mixture (Roche Applied Science, West Sussex, UK) and homogenized with a 5 ml hand-held homogenizer. This material was centrifuged at 1500 rpm for 5 min at 4 °C and the supernatant was further centrifuged at 50000 rpm for 30 min at 4 °C. The resulting pellet was resuspended in TE buffer and protein content was assessed using a BCA protein assay kit (Pierce, Fisher Scientific, Loughborough, UK).
Binding was initiated by the addition of membranes (5 µg of protein per tube). […] Radioactivity was quantified by liquid scintillation spectrometry.
All data are presented as means ± SEM of at least three independent experiments. […] To perform the statistical analysis of curve parameters, data from multiple experiments were fitted independently and resulting curve fit values were analysed with indicated tests. […]

[11] = tested on: human neutrophils; settings: cited from earlier work

SMILES	maximal effect in cAMP inhibition at Lys65Glu hFFA2 [1]	β factor (compared to WT) K65R ([2]; Pathway 1 GTPγS)	β factor (compared to WT) K65R ([2]; Pathway 1 cAMP)	loss of agonist potency at Lys65Glu hFFA2 vs wild type, inositol monophosphate accumulation [3]	maximal effect in cAMP inhibition at Lys65Ala hFFA2 [4]	potency in TGFα shedding assay (parental HEK293) higher than in inositol monophosphate accumulation assay ([5]; wild type hFFA2) [fold]	TGFα shedding response in HEK293 cells lacking Gαq, Gα11, Gα12, Gα13 ([5]; wild type hFFA2, all four G protein α subunits eliminated)	loss of agonist potency at Lys65Ala hFFA2 vs wild type, inositol monophosphate accumulation [6]	β factor (compared to WT) K65A ([7]; Pathway 1 GTPγS)	β factor (compared to WT) K65A ([7]; Pathway 1 cAMP)	β factor (compared to WT) K65E ([8]; Pathway 1 GTPγS)	β factor (compared to WT) K65E ([8]; Pathway 1 cAMP)	bias to favor Gi-mediated signalling compared to wild type hFFA2, based on [35S]GTPγS binding studies [9]	bias to favor Gi-mediated signalling compared to wild type hFFA2, based on cAMP inhibition studies [9]	ability to compete for binding with [3H]GLPG0974 at Lys65Ala hFFA2 [10]	block of chemotaxis of human neutrophils [11]
CCC(=O)O [Compound C3, propionate]	greater than at wild type hFFA2	−0.10	−0.30	greater than 30 fold	greater than at wild type hFFA2	~10	no TGFα shedding response	greater than 30 fold	1.78	2.00	1.62	2.10	41–60 fold	100–125 fold	much less affected	–
CC1(C(=O)N(CCCC(=O)O)Cc2cccc(Cl)c2)CCN1C(=O)c1csc2ccccc12 (stereo not shown) [GLPG0974, 4-[[1-(benzo[b]thiophene-3-carbonyl)-2-methylazetidine-2-carbonyl]-(3-chlorobenzyl)amino]butyric acid]	–	–	–	–	–	–	–	–	–	–	–	–	–	–	–	effectively blocked chemotaxis of human neutrophils
